Source: US9611267B2, “Substituted tricyclic compounds as FGFR inhibitors” (Incyte Corporation, priority 2012, dated 2017)

Columns and labels:
Assay type in all cases: biochemical
FGFR1 = FGFR1 (Homo sapiens (Human), UniProt P11362); test: FGFR enzymatic assay (FRET peptide phosphorylation), FGFR1; details: FGFR1 enzyme 0.02 nM, ATP 210 μM
Description: (§1) The inhibitor potency of the exemplified compounds was measured in an enzyme assay that measures peptide phosphorylation using FRET measurements to detect product formation. Inhibitors were serially diluted in DMSO and a volume of 0.5 μL was transferred to the wells of a 384-well plate. For FGFR3, a 10 μL volume of FGFR3 enzyme (Millipore) diluted in assay buffer (50 mM HEPES, 10 mM MgCl2, 1 mM EGTA, 0.01% Tween-20, 5 mM DTT, pH 7.5) was added to the plate and pre-incubated for 5-10 minutes. Appropriate controls (enzyme blank and enzyme with no inhibitor) were included on the plate. […] The plate was incubated at 25° C. for 1 hr. […] The plate was allowed to equilibrate for ˜1 hr before scanning the wells on a PheraStar plate reader (BMG Labtech).
(§2) The enzymes were purchased from Millipore or Invitrogen.
(§3) GraphPad prism3 was used to analyze the data. The IC50 values were derived by fitting the data to the equation for a sigmoidal dose-response with a variable slope. Y=Bottom+(Top−Bottom)/(1+10^((LogIC50−X)*HillSlope)) where X is the logarithm of concentration and Y is the response.

FGFR2 = FGFR2 (Homo sapiens (Human), UniProt P21802); test: FGFR enzymatic assay (FRET peptide phosphorylation), FGFR2; details: FGFR2 enzyme 0.01 nM, ATP 100 μM
Sequence of FGFR2 (P21802 22-821): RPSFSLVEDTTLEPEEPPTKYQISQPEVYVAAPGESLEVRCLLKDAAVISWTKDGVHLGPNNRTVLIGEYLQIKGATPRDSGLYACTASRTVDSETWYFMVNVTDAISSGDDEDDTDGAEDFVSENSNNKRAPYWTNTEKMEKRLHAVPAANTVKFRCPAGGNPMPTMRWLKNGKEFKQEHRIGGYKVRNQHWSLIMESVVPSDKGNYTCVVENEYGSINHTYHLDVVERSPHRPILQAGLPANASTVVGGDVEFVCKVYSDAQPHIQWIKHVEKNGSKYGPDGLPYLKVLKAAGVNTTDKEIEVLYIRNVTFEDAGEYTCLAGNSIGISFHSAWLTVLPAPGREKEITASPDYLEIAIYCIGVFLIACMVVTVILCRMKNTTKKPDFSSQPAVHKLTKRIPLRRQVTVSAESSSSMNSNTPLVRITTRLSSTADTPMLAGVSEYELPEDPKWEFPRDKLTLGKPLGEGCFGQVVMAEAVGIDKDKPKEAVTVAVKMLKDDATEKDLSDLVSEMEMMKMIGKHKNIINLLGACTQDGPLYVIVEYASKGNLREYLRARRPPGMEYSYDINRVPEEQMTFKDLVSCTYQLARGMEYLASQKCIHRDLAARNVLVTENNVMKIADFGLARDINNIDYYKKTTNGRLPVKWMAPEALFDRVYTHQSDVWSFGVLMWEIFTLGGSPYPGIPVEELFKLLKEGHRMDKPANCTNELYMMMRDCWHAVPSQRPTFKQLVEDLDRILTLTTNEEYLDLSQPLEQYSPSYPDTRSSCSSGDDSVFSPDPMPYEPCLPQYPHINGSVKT
Description: as §1, §2, §3

FGFR3 = FGFR3 (Homo sapiens (Human), UniProt P22607); test: FGFR enzymatic assay (FRET peptide phosphorylation), FGFR3; details: FGFR3 enzyme (Millipore), ATP 140 μM
Sequence of FGFR3 (P22607 23-806): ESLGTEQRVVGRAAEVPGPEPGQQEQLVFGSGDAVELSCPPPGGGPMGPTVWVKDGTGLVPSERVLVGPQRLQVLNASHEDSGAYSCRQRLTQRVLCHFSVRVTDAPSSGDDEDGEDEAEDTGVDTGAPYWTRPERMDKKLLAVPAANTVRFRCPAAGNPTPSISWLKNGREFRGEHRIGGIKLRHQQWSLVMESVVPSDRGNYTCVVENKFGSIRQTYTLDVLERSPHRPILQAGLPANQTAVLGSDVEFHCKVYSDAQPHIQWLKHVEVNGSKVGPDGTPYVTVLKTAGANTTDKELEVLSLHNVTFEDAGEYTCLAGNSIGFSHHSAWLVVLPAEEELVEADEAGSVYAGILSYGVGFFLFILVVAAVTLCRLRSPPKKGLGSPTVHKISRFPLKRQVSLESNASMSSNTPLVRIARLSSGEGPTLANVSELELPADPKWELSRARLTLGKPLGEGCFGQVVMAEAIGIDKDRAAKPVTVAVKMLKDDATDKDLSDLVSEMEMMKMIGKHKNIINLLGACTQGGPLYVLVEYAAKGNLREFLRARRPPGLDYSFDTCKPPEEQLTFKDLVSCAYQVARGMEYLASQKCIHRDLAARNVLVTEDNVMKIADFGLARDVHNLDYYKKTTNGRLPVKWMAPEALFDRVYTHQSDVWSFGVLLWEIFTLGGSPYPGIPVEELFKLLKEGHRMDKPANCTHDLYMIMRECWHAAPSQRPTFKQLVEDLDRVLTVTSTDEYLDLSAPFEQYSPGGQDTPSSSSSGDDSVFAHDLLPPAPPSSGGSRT
Description: as §1, §3

Sequence of FGFR1 (P11362 22-822): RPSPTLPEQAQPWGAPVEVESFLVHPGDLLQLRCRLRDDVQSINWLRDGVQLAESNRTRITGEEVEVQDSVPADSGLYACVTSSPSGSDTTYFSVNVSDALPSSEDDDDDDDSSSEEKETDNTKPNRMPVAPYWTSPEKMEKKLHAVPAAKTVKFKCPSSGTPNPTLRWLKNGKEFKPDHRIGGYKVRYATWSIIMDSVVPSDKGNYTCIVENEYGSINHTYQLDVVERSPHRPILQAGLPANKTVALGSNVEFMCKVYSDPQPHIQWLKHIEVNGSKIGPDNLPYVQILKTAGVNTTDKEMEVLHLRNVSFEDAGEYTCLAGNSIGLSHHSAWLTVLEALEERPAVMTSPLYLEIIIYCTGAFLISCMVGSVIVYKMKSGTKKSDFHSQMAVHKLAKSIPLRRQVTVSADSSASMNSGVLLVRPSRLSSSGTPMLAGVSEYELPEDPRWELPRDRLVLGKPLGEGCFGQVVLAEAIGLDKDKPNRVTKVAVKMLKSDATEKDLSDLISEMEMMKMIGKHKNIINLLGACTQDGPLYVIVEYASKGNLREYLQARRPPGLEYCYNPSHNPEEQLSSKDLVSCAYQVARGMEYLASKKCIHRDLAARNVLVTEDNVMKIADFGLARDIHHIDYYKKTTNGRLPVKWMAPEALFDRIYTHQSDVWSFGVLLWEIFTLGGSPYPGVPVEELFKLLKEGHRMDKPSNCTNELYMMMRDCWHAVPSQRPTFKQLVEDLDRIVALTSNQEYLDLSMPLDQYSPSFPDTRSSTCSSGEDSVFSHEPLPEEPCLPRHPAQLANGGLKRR

Structure (SMILES)	IC50 (FGFR1)	IC50 (FGFR2)	IC50 (FGFR3)
COc1cc(OC)c(F)c(N2Cc3cnc4[nH]nc(CCO)c4c3N(C)C2=O)c1F [Example 56, 3-(2,6-Difluoro-3,5-dimethoxyphenyl)-9-(2-hydroxyethyl)-1-methyl-1,3,4,7-tetrahydro-2H-pyrazolo[4′,3′:5,6]pyrido[4,3-d]pyrimidin-2-one]	< 100 nM	< 100 nM	< 100 nM
COc1cc(OC)cc(N2Cc3cnc4[nH]c(-c5cnn(C)c5)cc4c3N(C)C2=O)c1 [Example 11, 3-(3,5-Dimethoxyphenyl)-1-methyl-8-(1-methyl-1H-pyrazol-4-yl)-1,3,4,7-tetrahydro-2H-pyrrolo[3′,2′:5,6]pyrido[4,3-d]pyrimidin-2-one]	< 100 nM	< 100 nM	< 100 nM
CCN1C(=O)N(c2cc(OC)cc(OC)c2)Cc2cnc3[nH]ccc3c21 [Example 3, 3-(3,5-Dimethoxyphenyl)-1-ethyl-1,3,4,7-tetrahydro-2H-pyrrolo[3′,2′:5,6]pyrido[4,3-d]pyrimidin-2-one]	< 100 nM	< 100 nM	< 100 nM
COc1cc(OC)c(F)c(N2Cc3cnc4[nH]ncc4c3N(C[C@@H]3CCCO3)C2=O)c1F [Example 167, 3-(2,6-Difluoro-3,5-dimethoxyphenyl)-1-[(2S)-tetrahydrofuran-2-ylmethyl]-1,3,4,7-tetrahydro-2H-pyrazolo[4′,3′:5,6]pyrido[4,3-d]pyrimidin-2-one]	< 100 nM	< 100 nM	< 100 nM
COc1cc(OC)c(F)c(N2Cc3cnc4[nH]ccc4c3C3(CCC3)C2=O)c1F [Example 148, 7′-(2,6-difluoro-3,5-dimethoxyphenyl)-6′,7′-dihydrospiro[cyclobutane-1,9′-pyrrolo[2,3-c][2,7]naphthyridin]-8′(3′H)-one]	< 100 nM	< 100 nM	< 100 nM
COCCn1cc(N2C(=O)N(c3c(F)c(OC)cc(OC)c3F)Cc3cnc4[nH]ncc4c32)cn1 [Example 174, 3-(2,6-difluoro-3,5-dimethoxyphenyl)-1-[1-(2-methoxyethyl)-1H-pyrazol-4-yl]-1,3,4,7-tetrahydro-2H-pyrazolo[4′,3′:5,6]pyrido[4,3-d]pyrimidin-2-one]	< 100 nM	< 100 nM	< 100 nM
COc1cc(OC)cc(N2Cc3cnc4[nH]ccc4c3NC2=O)c1 [Example 2, 3-(3,5-Dimethoxyphenyl)-1,3,4,7-tetrahydro-2H-pyrrolo[3′,2′:5,6]pyrido[4,3-d]pyrimidin-2-one]	< 100 nM	< 100 nM	< 100 nM
COc1cc(OC)c(F)c(N2Cc3cnc4[nH]ncc4c3N(c3nnn(C)n3)C2=O)c1F [Example 95, 3-(2,6-difluoro-3,5-dimethoxyphenyl)-1-(2-methyl-2H-tetrazol-5-yl)-1,3,4,7-tetrahydro-2H-pyrazolo[4′,3′:5,6]pyrido[4,3-d]pyrimidin-2-one]	< 100 nM	< 100 nM	< 100 nM
COc1cc(OC)c(F)c(N2Cc3cnc4[nH]ccc4c3N(c3cccnn3)C2=O)c1F [Example 109, 3-(2,6-difluoro-3,5-dimethoxyphenyl)-1-pyridazin-3-yl-1,3,4,7-tetrahydro-2H-pyrrolo[3′,2′:5,6]pyrido[4,3-d]pyrimidin-2-one]	< 100 nM	< 100 nM	< 100 nM

The next lines start with the values.

IC50 (FGFR1)	IC50 (FGFR2)	IC50 (FGFR3)	Structure (SMILES)
< 100 nM	< 100 nM	< 100 nM	COc1cc(OC)c(F)c(N2Cc3cnc4[nH]c(CN5CCN(CCO)CC5)cc4c3N(C)C2=O)c1F [Example 130, 3-(2,6-difluoro-3,5-dimethoxyphenyl)-8-{[4-(2-hydroxyethyl)piperazin-1-yl]methyl}-1-methyl-1,3,4,7-tetrahydro-2H-pyrrolo[3′,2′:5,6]pyrido[4,3-d]pyrimidin-2-one]
< 100 nM	< 100 nM	< 100 nM	COc1cc(OC)c(F)c(N2Cc3cnc4[nH]ncc4c3N(c3cccc(C#N)c3)C2=O)c1F [Example 93, 3-[3-(2,6-difluoro-3,5-dimethoxyphenyl)-2-oxo-2,3,4,7-tetrahydro-1H-pyrazolo[4′,3′:5,6]pyrido[4,3-d]pyrimidin-1-yl]benzonitrile]
< 100 nM	< 100 nM	< 100 nM	COc1cc(OC)c(F)c(N2Cc3cnc4[nH]c(CCN5CCC5)cc4c3N(C)C2=O)c1F [Example 115, 8-(2-azetidin-1-ylethyl)-3-(2,6-difluoro-3,5-dimethoxyphenyl)-1-methyl-1,3,4,7-tetrahydro-2H-pyrrolo[3′,2′:5,6]pyrido[4,3-d]pyrimidin-2-one]
< 100 nM	< 100 nM	< 100 nM	COc1cc(OC)c(F)c(N2Cc3cnc4[nH]c(CN5CCC(F)(F)CC5)cc4c3N(C)C2=O)c1F [Example 112, 3-(2,6-difluoro-3,5-dimethoxyphenyl)-8-[(4,4-difluoropiperidin-1-yl)methyl]-1-methyl-1,3,4,7-tetrahydro-2H-pyrrolo[3′,2′:5,6]pyrido[4,3-d]pyrimidin-2-one]
< 100 nM	< 100 nM	< 100 nM	COc1cc(OC)c(F)c(N2Cc3cnc4[nH]ccc4c3N(c3cccc(F)c3F)C2=O)c1F [Example 76, 3-(2,6-difluoro-3,5-dimethoxyphenyl)-1-(2,3-difluorophenyl)-1,3,4,7-tetrahydro-2H-pyrrolo[3′,2′:5,6]pyrido[4,3-d]pyrimidin-2-one]
< 100 nM	< 100 nM	< 100 nM	COc1cc(OC)c(F)c(N2Cc3cnc4[nH]c(CN5CCN(C)CC5)cc4c3N(c3ccc(F)cc3)C2=O)c1F [Example 190, 3-(2,6-difluoro-3,5-dimethoxyphenyl)-1-(4-fluorophenyl)-8-[(4-methylpiperazin-1-yl)methyl]-1,3,4,7-tetrahydro-2H-pyrrolo[3′,2′:5,6]pyrido[4,3-d]pyrimidin-2-one]
< 100 nM	< 100 nM	< 100 nM	COc1cc(OC)c(F)c(N2Cc3cnc4[nH]ncc4c3N(c3cccnc3)C2=O)c1F [Example 94, 3-(2,6-difluoro-3,5-dimethoxyphenyl)-1-pyridin-3-yl-1,3,4,7-tetrahydro-2H-pyrazolo[4′,3′:5,6]pyrido[4,3-d]pyrimidin-2-one]
< 100 nM	< 100 nM	< 100 nM	COc1cc(OC)c(F)c(N2Cc3cnc4[nH]c(CN5CC(F)C5)cc4c3C(C)(C)C2=O)c1F [Example 207, 7-(2,6-difluoro-3,5-dimethoxyphenyl)-2-[(3-fluoroazetidin-1-yl)methyl]-9,9-dimethyl-3,6,7,9-tetrahydro-8H-pyrrolo[2,3-c]-2,7-naphthyridin-8-one]
< 100 nM	< 100 nM	< 100 nM	COc1cc(OC)c(F)c(N2Cc3cnc4[nH]c(CN5CCOCC5)cc4c3N(c3cnn(C)c3)C2=O)c1F [Example 203, 3-(2,6-difluoro-3,5-dimethoxyphenyl)-1-(1-methyl-1H-pyrazol-4-yl)-8-(morpholin-4-ylmethyl)-1,3,4,7-tetrahydro-2H-pyrrolo[3′,2′:5,6]pyrido[4,3-d]pyrimidin-2-one]
< 100 nM	< 100 nM	< 100 nM	COc1cc(OC)c(F)c(N2Cc3cnc4[nH]c(CN5CCOCC5)cc4c3N(c3ccc(F)cc3)C2=O)c1F [Example 189, 3-(2,6-difluoro-3,5-dimethoxyphenyl)-1-(4-fluorophenyl)-8-(morpholin-4-ylmethyl)-1,3,4,7-tetrahydro-2H-pyrrolo[3′,2′:5,6]pyrido[4,3-d]pyrimidin-2-one]
